# Assay results: US20240261297A1, “ANTI-CDK INHIBITORS FOR CANCER TREATMENT” (St. John's Cancer Institute, priority 2021, published 2024)
# Like-named read-outs stand apart in the source and are kept apart here.
# Assays:
# [1] = Absolute bioavailability / PK after IV and PO dosing in CD-1 male mice; assay type: in vivo; details: for Vd / AUC(0-t) / Tmax: male
# Experimental: Absolute bioavailability of I-3 was assessed after IV and PO dosing in CD-1 male mice. Mean plasma concentration (FIG. 6) and PK parameters (Table 12) are shown. […] Plasma concentrations were observed up to 8 hours, and plasma concentrations were not observed at 24 hour time point. […] This is approximately 50% of the hepatic blood flow ([…]) in mice.
# [2] = Snapshot plasma pharmacokinetics in mice; assay type: in vivo; details: mouse, in vivo; for AUC(0-inf): AUCinf
# Experimental: Evaluation of pharmacokinetic (PK) parameters and efficacy of I-3 in a xenograft model was carried out in mice. […] Briefly, mice were treated with 5 mg/kg of 1-3 or merioline-3. Plasma was then collected at different time points and measured for drug concentration. […] PK parameters of I-3 was also compared to a panel of CDK inhibitors (Table 13). […] Likewise, Ribociclib has a better Cmax than I-3, but it is primarily a CDK4/6 inhibitor.
# MCF-10A = test: Cell viability in breast cell lines; assay type: cell-based; details: Homo sapiens, 72 hours
# From the text: Tables 5 and 6 show assessment of in vitro efficacy of I-3 in a panel of breast cancer cell lines.
# PLC/PRF/5 cells = test: Cell viability of HCC cells by CellTiter Glo assay; assay type: cell-based; details: Homo sapiens, 72 hours
# Experimental: FIG. 5 is a graph showing cell viability of hepatocellular carcinoma (HCC) cell lines treated with I-3 for 72 hours, assessed by CellTiter Glo assay, with the control level of cells considered 100%.
# I-3 was also tested for efficacy on hepatocellular carcinoma (HCC) cell lines. Cell viability was measured by CellTiter Glo assay (FIG. 5 and Table 8).
# [3] = test system: MDA-MB-231 breast cancer xenograft; test: Anti-tumor efficacy in MDA-MB-231 breast cancer xenograft model; assay type: in vivo, mice; details: p<0.0001
# Experimental: (§1) Anti-tumor efficacy of I-3 was evaluated in a MDA-MB-231 breast cancer xenograft model. Briefly, mice with MDA-MB-231 tumors were randomized to three treatment groups: control (Vehicle, n=8), 1-3 IV (10 mg/kg, n=8) and 1-3 PO (10 mg/kg, n=8) on a schedule of 14 days for daily (PO) or twice weekly (IV). Oral gavage treatments were formulated in 0.1% Tween 80 and 99.9% of 0.5% (w/v) of methyl cellulose in water. Intravenous treatments were formulated in 5% (v/v) DMSO, 2.5% (v/v) absolute ethanol, 2.5% (v/v) Solutol, and 90% Normal saline. Tumor growth was measured twice weekly by using a digital vernier caliper and high resolution images of tumor bearing mice were captured using a digital camera at weekly intervals of the study (Days 0, 7 and 14). Tumor volume was calculated as follows:
# Tumor Volume=[Length(L)×Width(W)^2]/2
# where length (L) is the largest diameter of the tumor and width (W) is the smallest diameter of the tumor.
# CDK5/p35 = CDK5/p35 (Homo sapiens, UniProt Q00535); test: Radioisotope-based protein kinase assay; assay type: biochemical; details: Table 2
# Experimental: A series of test compounds were selected for initial screening against CDK isoforms. Protein kinase assays were performed with gold standard radioisotope-based assay formats to measuring enzyme activity remaining in presence and absence of inhibitor.
# The activity of compound I-3 was compared to that of a panel of CDKs and their respective binding partners (Tables 2 and 3).
# [4] = In vivo safety (body weight, complete blood counts) in xenograft study; set-up: species or system mice
# Experimental: as §1, with “follows: […]” for “follows:”
# At the end of the study, blood samples were collected from the animals for analysis of complete blood counts (CBC) using an automated hematology analyser (ADVIA2120, Siemens Ltd.). […] Once daily oral doses of 10 mg/Kg and twice weekly IV doses of 10 mg/kg were well-tolerated by the animals during the course of the treatment, with no changes in body weight or blood counts compared to vehicle control over the course of the study (Tables 14 and 15).
# [5] = CD-1, mouse, plasma, male CD1 mice, PO 10 mg/kg
# Chain of CDK5/p35 (Q00535 whole entry, canonical isoform): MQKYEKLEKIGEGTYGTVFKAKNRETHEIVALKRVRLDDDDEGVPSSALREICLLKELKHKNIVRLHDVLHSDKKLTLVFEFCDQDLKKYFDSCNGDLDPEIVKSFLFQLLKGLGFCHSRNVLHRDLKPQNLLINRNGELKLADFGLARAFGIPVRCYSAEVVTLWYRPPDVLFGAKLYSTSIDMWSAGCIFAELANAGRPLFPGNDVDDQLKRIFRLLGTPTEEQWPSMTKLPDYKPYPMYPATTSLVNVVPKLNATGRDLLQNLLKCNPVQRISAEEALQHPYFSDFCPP
# Chain of CDK5/p35 (Q15078 whole entry partner, canonical isoform): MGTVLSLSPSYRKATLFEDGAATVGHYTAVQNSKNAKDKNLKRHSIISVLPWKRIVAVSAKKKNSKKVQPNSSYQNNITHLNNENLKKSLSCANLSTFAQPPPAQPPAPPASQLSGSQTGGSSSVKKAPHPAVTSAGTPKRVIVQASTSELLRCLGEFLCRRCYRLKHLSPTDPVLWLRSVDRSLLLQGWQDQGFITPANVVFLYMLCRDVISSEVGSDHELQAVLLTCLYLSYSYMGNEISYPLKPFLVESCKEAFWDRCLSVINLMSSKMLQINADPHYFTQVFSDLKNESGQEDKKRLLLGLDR
smiles,measurement,setting,value
"Nc1nccc(-c2c[nH]c3nccc(Oc4cccc(F)c4)c23)n1 [I-3, 4-(4-(3-fluorophenoxy)-1H-pyrrolo[2,3-b]pyridin-3-yl)pyrimidin-2-amine]",half-life,"[1]; CD-1, mouse, plasma, male CD1 mice, IV 1 mg/kg",3.4 ± 0.7 h
same,clearance,"[1]; CD-1, mouse, plasma, male CD1 mice, IV 1 mg/kg, read-out: CLp (converted)",41.7 mL/min/kg
same,AUC(0-inf),[1]; [5],6570 ± 542 ng·h/mL
same,Cmax,[1]; [5],2500 ± 55.5 ng/mL
same,Plasma clearance,"[1]; CD-1 male mice, IV",41.7 mL/min/kg
same,Plasma clearance as share of hepatic blood flow (5.4 L/kg) in mice,"[1]; CD-1 male mice, IV",approximately 50%
same,Volume of distribution compared to total body water content (0.7 L/kg),"[1]; CD-1 male mice, IV",17 fold
same,Time up to which plasma concentrations were observed,"[1]; CD-1 male mice, after IV administration, not observed at 24 hour",up to 8 hours
same,Bioavailability (% F),"[1]; male CD1 mice, PO 10 mg/kg vs IV 1 mg/kg",147.5 ± 14.8 % F
same,Vd,"[1]; CD-1, mouse, plasma, iv, 1 mg/kg, CD-1 male mice, IV, read-out: Volume of distribution",12.5 L/kg
same,AUC(0-t),"[1]; CD-1, mouse, plasma, iv, 1 mg/kg, male CD1 mice, IV 1 mg/kg",384 ± 98.9 ng·h/mL
same,Vd,"[1]; CD-1, mouse, plasma, iv, 1 mg/kg, male CD1 mice, IV 1 mg/kg, read-out: Vdss",6.8 ± 2.4 L/kg
same,AUC(0-t),"[1]; CD-1, mouse, plasma, po, 10 mg/kg, CD-1 male mice, PO 10 mg/kg",5670 ng·h/mL
same,Tmax,"[1]; CD-1, mouse, plasma, po, 10 mg/kg, CD-1 male mice, PO 10 mg/kg, read-out: Tmax (oral absorption)",0.5 to 1 h
same,AUC(0-t),"[1]; CD-1, mouse, plasma, po, 10 mg/kg, male CD1 mice, PO 10 mg/kg",5670 ± 569 ng·h/mL
same,Tmax,"[1]; CD-1, mouse, plasma, po, 10 mg/kg, male CD1 mice, PO 10 mg/kg, read-out: Tmax",1 ± 0.3 h
same,bioavailability,"[1]; mouse, plasma, CD-1 male mice, PO 10 mg/kg, read-out: Oral suspension bioavailability (% F)",> 100%
same,Tmax,[2],3.1 h
same,AUC(0-inf),[2],1870 ng·h/mL
same,Cmax,[2]; Cmax,483 ng/mL
same,Tmax,"[2]; iv, 5 mg/kg",0.0833 h
same,half-life,"[2]; iv, 5 mg/kg",1.15 h
same,AUC(0-inf),"[2]; iv, 5 mg/kg",3700 ng·h/mL
same,Cmax,"[2]; iv, 5 mg/kg, Cmax",5080 ng/mL
same,Cmax,"[2]; po, 5 mg/kg",178 ng/mL
same,Tmax,"[2]; po, 5 mg/kg",0.5 h
same,half-life,"[2]; po, 5 mg/kg",3.1 h
same,AUC(0-inf),"[2]; po, 5 mg/kg",1480 ng·h/mL
same,IC50,"MCF-10A; MCF-10A (Normal breast-like), read-out: CTG and Alamar Blue Assay IC50",2070 nM
same,IC50,"MCF-10A; MCF-10A, Table 6, read-out: Cell viability by CellTiter Glo IC50",2070 nM
same,IC50,PLC/PRF/5 cells,1520 nM
same,tumor growth inhibition (TGI),"[3]; IV 10 mg/kg twice weekly, 14 days, vs control",60%
same,tumor growth inhibition (TGI),"[3]; PO 10 mg/kg once daily, end of two weeks",54%
same,IC50,CDK5/p35,8 nM
same,"Body Weight, mean ± SE","[4]; IV 10 mg/kg, Day 0",22.1 ± 0.6 g
same,"Body Weight, mean ± SE","[4]; IV 10 mg/kg, Day 7",22.3 ± 1.0 g
same,"Body Weight, mean ± SE","[4]; IV 10 mg/kg, Day 14",22.9 ± 0.7 g
same,Hematocrit (Mean ± SE),"[4]; IV 10 mg/kg, end of study",38.4 ± 3.7%
same,Hemoglovin (Mean ± SE),"[4]; IV 10 mg/kg, end of study",12.8 ± 0.8 g/dL
same,Mean corpuscular hemoglobin (Mean ± SE),"[4]; IV 10 mg/kg, end of study",15.2 ± 0.2 pg
same,Mean corpuscular hemoglobin concentration (Mean ± SE),"[4]; IV 10 mg/kg, end of study",30.3 ± 0.2 g/dL
same,Mean corpuscular volume (Mean ± SE),"[4]; IV 10 mg/kg, end of study",50.2 ± 0.3 fL
same,Platelets (Mean ± SE),"[4]; IV 10 mg/kg, end of study",802.4 ± 107.9 10^3 cells/μL
same,Red blood cells (Mean ± SE),"[4]; IV 10 mg/kg, end of study",8.4 ± 0.5 10^6 cells/μL
same,White blood cells (Mean ± SE),"[4]; IV 10 mg/kg, end of study",22.9 ± 8.3 10^3 cells/μL
same,Tolerability,"[4]; PO 10 mg/Kg once daily and IV 10 mg/kg twice weekly, 14 days",well-tolerated
same,"Body Weight, mean ± SE","[4]; PO 10 mg/kg, Day 0",21.6 ± 0.4 g
same,"Body Weight, mean ± SE","[4]; PO 10 mg/kg, Day 7",20.9 ± 0.9 g
same,"Body Weight, mean ± SE","[4]; PO 10 mg/kg, Day 14",21.6 ± 0.9 g
same,Hematocrit (Mean ± SE),"[4]; PO 10 mg/kg, end of study",34.2 ± 0.9%
same,Hemoglovin (Mean ± SE),"[4]; PO 10 mg/kg, end of study",10.6 ± 0.3 g/dL
same,Mean corpuscular hemoglobin (Mean ± SE),"[4]; PO 10 mg/kg, end of study",15.3 ± 0.1 pg
same,Mean corpuscular hemoglobin concentration (Mean ± SE),"[4]; PO 10 mg/kg, end of study",31.1 ± 0.2 g/dL
same,Mean corpuscular volume (Mean ± SE),"[4]; PO 10 mg/kg, end of study",44.8 ± 4.1 fL
same,Platelets (Mean ± SE),"[4]; PO 10 mg/kg, end of study",762.1 ± 99.3 10^3 cells/μL
same,Red blood cells (Mean ± SE),"[4]; PO 10 mg/kg, end of study",6.9 ± 0.2 10^6 cells/μL
same,White blood cells (Mean ± SE),"[4]; PO 10 mg/kg, end of study",36.6 ± 6.8 10^3 cells/μL
same,Complete blood counts vs control group,"[4]; end of study, IV and PO 10 mg/kg",no significant differences
